Measured values taken from patent US6737383B1, “Herbicidal oxadiazolidines” (priority 1999, dated 2004).

Key:
blackgrass = assay: Test B pre/postemergence blackgrass; format: in vivo, Alopecurus myosuroides
Summary of the method: (§1)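 Herbicidal effect was estimated by eye on a ten-point control scale after plants spent twelve to sixteen days in a greenhouse following soil or foliar treatment. Foliar sprays targeted plants at one to four leaves; all doses were formulated in a non-phytotoxic solvent with surfactant.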

surinam grass = assay: Test B pre/postemergence surinam grass; format: in vivo, Brachiaria decumbens
Summary of the method: as §1

cocklebur = assay: Test B pre/postemergence cocklebur; format: in vivo, Xanthium strumarium
Summary of the method: as §1

corn = assay: Test B pre/postemergence corn; format: in vivo, Zea mays
Summary of the method: as §1

crabgrass = assay: Test B pre/postemergence crabgrass; format: in vivo, Digitaria sanguinalis
Summary of the method: as §1

giant foxtail = assay: Test B pre/postemergence giant foxtail; format: in vivo, Setaria faberii
Summary of the method: as §1

morningglory = assay: Test B pre/postemergence morningglory; format: in vivo, Ipomoea hederacea
Summary of the method: as §1

pigweed = assay: Test B pre/postemergence pigweed; format: in vivo, Amaranthus retroflexus
Summary of the method: as §1

rape = assay: Test B pre/postemergence rape; format: in vivo, Brassica napus
Summary of the method: as §1

soybean = assay: Test B pre/postemergence soybean; format: in vivo, Glycine max
Summary of the method: as §1

sugar beet = assay: Test B pre/postemergence sugar beet; format: in vivo, Beta vulgaris
Summary of the method: as §1

velvetleaf = assay: Test B pre/postemergence velvetleaf; format: in vivo, Abutilon theophrasti
Summary of the method: as §1

wheat = assay: Test B pre/postemergence wheat; format: in vivo, Triticum aestivum
Summary of the method: as §1

wild oat = assay: Test B pre/postemergence wild oat; format: in vivo, Avena fatua
Summary of the method: as §1

purple nutsedge = assay: Test B pre/postemergence purple nutsedge; format: in vivo, Cyperus rotundus
Summary of the method: as §1

rice = assay: Test B flood test rice; format: in vivo, Oryza sativa
Summary of the method: (§2)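 Flood test on plants grown to the 2-leaf stage; treated plants kept in greenhouse twelve to sixteen days, then visually rated against controls on a 0 (no effect) to 10 (complete control) scale.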

smallflower flatsedge = assay: Test B flood test smallflower flatsedge; format: in vivo, Cyperus difformis
Summary of the method: as §2

duck salad = assay: Test B flood test duck salad; format: in vivo, Heteranthera limosa
Summary of the method: as §2

bamyardgrass = assay: Test B flood test barnyardgrass; format: in vivo, Echinochloa crus-galli
Summary of the method: as §2

[1] = Postemergence, Rate 125 g/ha, scale 0 to 10, 0 is no effect, 10 is complete control
[2] = Postemergence, Rate 250 g/ha, scale 0 to 10, 0 is no effect, 10 is complete control
[3] = Postemergence, Rate 500 g/ha, scale of 0 to 10 where 0 is no effect and 10 is complete control
[4] = Preemergence, Rate 62 g/ha, scale 0 to 10 (0 no effect, 10 complete control)
[5] = Preemergence, Rate 125 g/ha, scale of 0 to 10 where 0 is no effect and 10 is complete control
[6] = Preemergence, Rate 250 g/ha, scale of 0 to 10 where 0 is no effect and 10 is complete control
[7] = Preemergence, Rate 500 g/ha, scale 0 to 10, 0 is no effect, 10 is complete control
[8] = Rate 62 g/ha, Postemergence, scale of 0 to 10 where 0 is no effect and 10 is complete control
[9] = Preemergence, Rate 250 g/ha, scale 0 to 10, 0 is no effect, 10 is complete control
[10] = Rate 62 g/ha, flood test species, Pre-emergence, visual evaluation after twelve to sixteen days
[11] = Rate 125 g/ha, under heading Pre-emergence, flood test species, visual evaluation after twelve to sixteen days
[12] = Rate 250 g/ha, Pre-emergence, flood-test species, scale 0 to 10, 0 is no effect, 10 is complete control
[13] = Rate 500 g/ha, Pre-emergence, flood test species, scale 0 to 10 (0 no effect, 10 complete control)

## Cc1nc(Cl)sc1C(C)n1c(=O)on(C(=O)N(c2ccc(F)cc2F)C(C)C)c1=O (stereo not shown) [Compound 405]
blackgrass; [1]
  Plant response rating, Blackgrass: 0
blackgrass; [2]
  Plant response rating, Blackgrass: 0
blackgrass; [3]
  Blackgrass plant response rating: 5
blackgrass; [4]
  Plant response rating, Blackgrass: 0
blackgrass; [5]
  Plant response rating, Blackgrass: 0
blackgrass; [6]
  Blackgrass plant response rating: 0
blackgrass; [7]
  Blackgrass plant response rating: 0
blackgrass; [8]
  Blackgrass plant response rating: 0
Surinam grass; [1]
  Plant response rating, B. signalgrass: 0
Surinam grass; [2]
  Plant response rating, B. signalgrass: 0
Surinam grass; [3]
  B. signalgrass plant response rating: 0
Surinam grass; [4]
  Plant response rating, B. signalgrass: 0
Surinam grass; [5]
  Plant response rating, B. signalgrass: 0
Surinam grass; [6]
  B. signalgrass plant response rating: 0
Surinam grass; Preemergence, Rate 500 g/ha, scale of 0 to 10 where 0 is no effect and 10 is complete control
  B. signalgrass plant response rating: 0
Surinam grass; [8]
  B. signalgrass plant response rating: 0
cocklebur; [1]
  Plant response rating, Cocklebur: 0
cocklebur; [2]
  Plant response rating, Cocklebur: 0
cocklebur; [3]
  Cocklebur plant response rating: 0
cocklebur; [4]
  Plant response rating, Cocklebur: 0
cocklebur; [5]
  Plant response rating, Cocklebur: 0
cocklebur; [9]
  Cocklebur plant response rating: 0
cocklebur; [7]
  Cocklebur plant response rating: 0
cocklebur; [8]
  Cocklebur plant response rating: 0
corn; [1]
  Plant response rating, Corn: 0
corn; [2]
  Plant response rating, Corn: 0
corn; [3]
  Corn plant response rating: 0
corn; [4]
  Plant response rating, Corn: 0
corn; [5]
  Plant response rating, Corn: 0
corn; [9]
  Corn plant response rating: 0
corn; [8]
  Corn plant response rating: 0
crabgrass; [1]
  Plant response rating, Crabgrass: 0
crabgrass; [2]
  Plant response rating, Crabgrass: 0
crabgrass; [3]
  Crabgrass plant response rating: 0
crabgrass; [4]
  Plant response rating, Crabgrass: 0
crabgrass; [5]
  Plant response rating, Crabgrass: 1
crabgrass; [9]
  Crabgrass plant response rating: 8
crabgrass; [7]
  Crabgrass plant response rating: 10
crabgrass; [8]
  Crabgrass plant response rating: 0
Giant foxtail; [1]
  Plant response rating, Giant foxtail: 0
Giant foxtail; [2]
  Plant response rating, Giant foxtail: 0
Giant foxtail; [3]
  Giant foxtail plant response rating: 6
Giant foxtail; [4]
  Plant response rating, Giant foxtail: 0
Giant foxtail; [5]
  Plant response rating, Giant foxtail: 8
Giant foxtail; [9]
  Giant foxtail plant response rating: 9
Giant foxtail; [7]
  Giant foxtail plant response rating: 10
Giant foxtail; [8]
  Giant foxtail plant response rating: 0
morningglory; [2]
  Plant response rating, Morningglory: 5
morningglory; [3]
  Morningglory plant response rating: 5
morningglory; [4]
  Plant response rating, Morningglory: 0
morningglory; [5]
  Plant response rating, Morningglory: 0
morningglory; [9]
  Morningglory plant response rating: 0
morningglory; [7]
  Morningglory plant response rating: 0
pigweed; [2]
  Plant response rating, Redroot pigweed: 0
pigweed; [3]
  Redroot pigweed plant response rating: 0
pigweed; [4]
  Plant response rating, Redroot pigweed: 0
pigweed; [5]
  Plant response rating, Redroot pigweed: 0
pigweed; [9]
  Redroot pigweed plant response rating: 0
pigweed; [7]
  Redroot pigweed plant response rating: 0
rape; [2]
  Plant response rating, Rape: 0
rape; [3]
  Rape plant response rating: 2
rape; [4]
  Plant response rating, Rape: 0
rape; [5]
  Plant response rating, Rape: 0
rape; [9]
  Rape plant response rating: 0
rape; [7]
  Rape plant response rating: 0
soybean; [2]
  Plant response rating, Soybean: 2
soybean; [3]
  Soybean plant response rating: 3
soybean; [4]
  Plant response rating, Soybean: 0
soybean; [5]
  Plant response rating, Soybean: 0
soybean; [9]
  Soybean plant response rating: 0
soybean; [7]
  Soybean plant response rating: 3
Sugar beet; [2]
  Plant response rating, Sugarbeets: 0
Sugar beet; [3]
  Sugarbeets plant response rating: 0
Sugar beet; [4]
  Plant response rating, Sugarbeets: 0
Sugar beet; [5]
  Plant response rating, Sugarbeets: 0
Sugar beet; [9]
  Sugarbeets plant response rating: 0
Sugar beet; [7]
  Sugarbeets plant response rating: 0
velvetleaf; [2]
  Plant response rating, Velvetleaf: 0
velvetleaf; [3]
  Velvetleaf plant response rating: 0
velvetleaf; [4]
  Plant response rating, Velvetleaf: 0
velvetleaf; [5]
  Plant response rating, Velvetleaf: 0
velvetleaf; [9]
  Velvetleaf plant response rating: 0
velvetleaf; [7]
  Velvetleaf plant response rating: 0
wheat; [3]
  Wheat plant response rating: 0
wheat; [4]
  Plant response rating, Wheat: 0
wheat; [5]
  Plant response rating, Wheat: 0
wheat; [9]
  Wheat plant response rating: 0
wheat; [7]
  Wheat plant response rating: 0
Wild oat; [3]
  Wild oats plant response rating: 0
Wild oat; [4]
  Plant response rating, Wild oats: 0
Wild oat; [5]
  Plant response rating, Wild oats: 0
Wild oat; [9]
  Wild oats plant response rating: 0
Wild oat; [7]
  Wild oats plant response rating: 0
Purple nutsedge; [2]
  Plant response rating, Nutsedge: 0
Purple nutsedge; [3]
  Nutsedge plant response rating: 0
Purple nutsedge; [4]
  Plant response rating, Nutsedge: 0
Purple nutsedge; [5]
  Plant response rating, Nutsedge: 0
Purple nutsedge; [9]
  Nutsedge plant response rating: 0
Purple nutsedge; [7]
  Nutsedge plant response rating: 0
rice; [10]
  Plant response rating, Rice (0 to 10 scale, 0 is no effect, 10 is complete control): 0
rice; [11]
  Rice plant response rating (0 to 10 scale, 0 is no effect, 10 is complete control): 0
rice; [12]
  Rice plant response rating: 0
rice; [13]
  Rice plant response rating: 0
Smallflower flatsedge; [10]
  Plant response rating, S. Flatsedge (0 to 10 scale, 0 is no effect, 10 is complete control): 0
Smallflower flatsedge; [11]
  S. Flatsedge plant response rating (0 to 10 scale, 0 is no effect, 10 is complete control): 0
Smallflower flatsedge; [12]
  S. Flatsedge plant response rating: 0
Smallflower flatsedge; [13]
  S. Flatsedge plant response rating: 0
Duck salad; [10]
  Plant response rating, Ducksalad (0 to 10 scale, 0 is no effect, 10 is complete control): 0
Duck salad; [11]
  Ducksalad plant response rating (0 to 10 scale, 0 is no effect, 10 is complete control): 0
Duck salad; [12]
  Ducksalad plant response rating: 0
Duck salad; [13]
  Ducksalad plant response rating: 0
bamyardgrass; [10]
  Plant response rating, Barnyardgrass (0 to 10 scale, 0 is no effect, 10 is complete control): 0
bamyardgrass; [11]
  Barnyardgrass plant response rating (0 to 10 scale, 0 is no effect, 10 is complete control): 0
bamyardgrass; [12]
  Barnyardgrass plant response rating: 0
bamyardgrass; [13]
  Barnyardgrass plant response rating: 0
